# From ChEMBL document CHEMBL1201862, “PubChem BioAssay data set” (2004)
#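 A five-concentration, 48-hour dose response in 96-well plates underlies each endpoint, interpolated linearly between surrounding concentrations. The concentration for 50% growth inhibition is given as GI50.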 Activity calls are given as the source filed them. Cut-off read from the data, not from the text of the source: active = GI50 up to about 1.1 µM and inactive = higher.
# How the values were obtained:
# Experiment in all cases: inhibition of tumour cell growth, NCI panel, 48 h
# SF-268 = system: SF-268
# MDA-MB-435 = system: MDA-MB-435
# MDA-MB-231 = system: MDA-MB-231
# SF-539 = system: SF-539
# PC-3 = system: PC-3
# NCI-H226 = system: NCI-H226
# HOP-62 = system: HOP-62
# HCT-15 = system: HCT-15
# HCT-116 = system: HCT-116
# SR = system: SR
# KM12 = system: KM12
# A498 = system: A498
# SK-MEL-5 = system: SK-MEL-5
# MCF7 = system: MCF7
# HCC 2998 = system: HCC 2998
# A549 = system: A549
# HOP-92 = system: HOP-92
# OVCAR-3 = system: OVCAR-3
# UACC-62 = system: UACC-62
# UO-31 = system: UO-31
Compound,GI50 (SF-268),GI50 (MDA-MB-435),GI50 (MDA-MB-231),GI50 (SF-539),GI50 (PC-3),GI50 (NCI-H226),GI50 (HOP-62),GI50 (HCT-15) [µM],GI50 (HCT-116),GI50 (SR),GI50 (KM12),GI50 (A498),GI50 (SK-MEL-5),GI50 (MCF7),GI50 (HCC 2998),GI50 (A549),GI50 (HOP-92),GI50 (OVCAR-3),GI50 (UACC-62),GI50 (UO-31)
Nc1cc(OCc2ccccc2)c(OCc2ccccc2)cc1C=O,65.2 µM (inactive),39.8 µM (inactive),44.2 µM (inactive),5.83 µM (inactive),35.1 µM (inactive),44 µM (inactive),> 10 µM (inactive),19.8,21.2 µM (inactive),26.6 µM (inactive),23.3 µM (inactive),11.6 µM (inactive),24.7 µM (inactive),36.7 µM (inactive),8.57 µM (inactive),23.8 µM (inactive),–,–,–,–
N=C(N)NS(=O)(=O)c1ccc(Nc2c3ccccc3nc3ccc(C(=O)Nc4ccc(S(N)(=O)=O)cc4)cc23)cc1,> 100 µM (inactive),> 100 µM (inactive),> 100 µM (inactive),> 100 µM (inactive),> 100 µM (inactive),> 100 µM (inactive),> 100 µM (inactive),> 100,> 100 µM (inactive),> 100 µM (inactive),> 100 µM (inactive),–,> 100 µM (inactive),> 100 µM (inactive),> 100 µM (inactive),> 100 µM (inactive),> 100 µM (inactive),> 100 µM (inactive),> 100 µM (inactive),> 100 µM (inactive)
CCCCCCCCCCCCCC(=O)OCC(CCS(=O)(=O)O[C@H]1CC[C@@]2(C)C(=CC[C@@H]3C2CC[C@]2(C)C(=O)CCC32)C1)OC(=O)CCCCCCCCCCCCC (stereo not given in full),> 100 µM (inactive),> 100 µM (inactive),> 100 µM (inactive),> 100 µM (inactive),> 100 µM (inactive),–,> 100 µM (inactive),> 100,> 100 µM (inactive),> 100 µM (inactive),> 100 µM (inactive),> 100 µM (inactive),> 100 µM (inactive),> 100 µM (inactive),> 100 µM (inactive),> 100 µM (inactive),> 100 µM (inactive),> 100 µM (inactive),> 100 µM (inactive),> 100 µM (inactive)
CCOC(=O)Cc1csc(N/N=C2\C(=O)Nc3ccccc32)n1,66.8 µM (inactive),55.6 µM (inactive),43 µM (inactive),30.7 µM (inactive),30.1 µM (inactive),30.2 µM (inactive),36.5 µM (inactive),41,40.1 µM (inactive),–,31.2 µM (inactive),27.4 µM (inactive),21.7 µM (inactive),33.1 µM (inactive),59 µM (inactive),41.6 µM (inactive),42.2 µM (inactive),25.3 µM (inactive),42.2 µM (inactive),27.3 µM (inactive)
O=C(C1OC1c1ccc(Br)cc1O)C12CC3CC(CC(C3)C1)C2 (stereo not given),31.7 µM (inactive),13.8 µM (inactive),18.1 µM (inactive),95.1 µM (inactive),23.6 µM (inactive),28.5 µM (inactive),26.2 µM (inactive),19.4,14.9 µM (inactive),–,19.5 µM (inactive),97.3 µM (inactive),19.5 µM (inactive),22.3 µM (inactive),21.4 µM (inactive),37.8 µM (inactive),17.7 µM (inactive),31.5 µM (inactive),15.5 µM (inactive),13.2 µM (inactive)
C=CCCCCOC1C=CC(O)C(CO)O1 (stereo not given),> 100 µM (inactive),> 100 µM (inactive),> 100 µM (inactive),> 100 µM (inactive),> 100 µM (inactive),> 100 µM (inactive),> 100 µM (inactive),> 100,> 100 µM (inactive),–,> 100 µM (inactive),> 100 µM (inactive),> 100 µM (inactive),> 100 µM (inactive),> 100 µM (inactive),> 100 µM (inactive),> 100 µM (inactive),> 100 µM (inactive),> 100 µM (inactive),> 100 µM (inactive)
CC/C(Cl)=N\OC(=O)Nc1ccc(F)cc1F,24.1 µM (inactive),17 µM (inactive),17.5 µM (inactive),7.01 µM (inactive),17.7 µM (inactive),17.9 µM (inactive),21 µM (inactive),2.34,6.62 µM (inactive),–,19.9 µM (inactive),28.3 µM (inactive),6.12 µM (inactive),7.78 µM (inactive),19.3 µM (inactive),19.9 µM (inactive),1.93 µM (inactive),17 µM (inactive),15.2 µM (inactive),14.9 µM (inactive)
CN(C)c1ccc(/C=C2\C[C@H]3[C@@H]4CCc5cc(OCCN6CCCC6)ccc5[C@H]4CC[C@]3(C)C2=O)cc1,–,1.55 µM (inactive),1.53 µM (inactive),1.59 µM (inactive),1.78 µM (inactive),1.82 µM (inactive),–,1.26,1.21 µM (inactive),0.333 µM (active),1.74 µM (inactive),1.96 µM (inactive),1.73 µM (inactive),1.52 µM (inactive),1.53 µM (inactive),1.5 µM (inactive),–,–,1.9 µM (inactive),1.54 µM (inactive)
Cc1ccc(N(C)S(=O)(=O)c2ccc([N+](=O)[O-])cc2)cc1,> 100 µM (inactive),81.8 µM (inactive),85.3 µM (inactive),> 100 µM (inactive),34.4 µM (inactive),48.9 µM (inactive),> 100 µM (inactive),91.4,> 100 µM (inactive),78.2 µM (inactive),74.6 µM (inactive),–,> 10 µM (inactive),> 100 µM (inactive),93.5 µM (inactive),> 100 µM (inactive),–,> 100 µM (inactive),52.5 µM (inactive),44.3 µM (inactive)
CN(C)CCCNC(=O)CCNC(=O)c1cc(NC(=O)c2cc(NC(=O)c3cc(NC(=O)CCCNC(=O)c4cc(NC(=O)c5cc(NC(=O)c6nccn6C)cn5C)cn4C)cn3C)cn2C)cn1C,> 100 µM (inactive),> 100 µM (inactive),> 100 µM (inactive),> 100 µM (inactive),> 100 µM (inactive),> 100 µM (inactive),> 100 µM (inactive),> 100,> 100 µM (inactive),–,> 100 µM (inactive),> 100 µM (inactive),> 100 µM (inactive),> 100 µM (inactive),> 100 µM (inactive),> 100 µM (inactive),> 100 µM (inactive),> 100 µM (inactive),–,> 100 µM (inactive)
COc1ccc2c(c1)/C(=C\c1c(C)nc3n1CCS3)C(=O)N2,–,3.12 µM (inactive),30.5 µM (inactive),18.3 µM (inactive),16.3 µM (inactive),–,32.3 µM (inactive),9.4,19.2 µM (inactive),9.14 µM (inactive),6.34 µM (inactive),17.8 µM (inactive),34 µM (inactive),27.6 µM (inactive),19.2 µM (inactive),24.1 µM (inactive),34.4 µM (inactive),21.7 µM (inactive),22.7 µM (inactive),34.3 µM (inactive)
C#CCNCC(=O)O,> 100 µM (inactive),> 100 µM (inactive),> 100 µM (inactive),> 100 µM (inactive),> 100 µM (inactive),> 100 µM (inactive),> 100 µM (inactive),> 100,> 100 µM (inactive),–,> 100 µM (inactive),> 100 µM (inactive),> 100 µM (inactive),> 100 µM (inactive),> 100 µM (inactive),> 100 µM (inactive),> 100 µM (inactive),> 100 µM (inactive),> 100 µM (inactive),> 100 µM (inactive)
[N-]=[N+]=NC1=NNC2(C(=O)N1)c1ccccc1-c1ccccc12,> 100 µM (inactive),17.4 µM (inactive),> 100 µM (inactive),> 100 µM (inactive),> 100 µM (inactive),> 100 µM (inactive),> 100 µM (inactive),> 100,14.2 µM (inactive),–,–,> 100 µM (inactive),> 100 µM (inactive),72.1 µM (inactive),> 100 µM (inactive),> 100 µM (inactive),> 100 µM (inactive),> 100 µM (inactive),> 100 µM (inactive),> 100 µM (inactive)
S=C1N(/N=C/c2c3ccccc3cc3ccccc23)C(=N\c2ccccc2)/C(=N/c2ccccc2)N1c1ccccc1,> 100 µM (inactive),> 100 µM (inactive),> 100 µM (inactive),> 100 µM (inactive),> 100 µM (inactive),> 100 µM (inactive),> 100 µM (inactive),> 100,> 100 µM (inactive),> 100 µM (inactive),> 100 µM (inactive),–,> 100 µM (inactive),> 100 µM (inactive),> 100 µM (inactive),> 100 µM (inactive),> 100 µM (inactive),> 100 µM (inactive),> 100 µM (inactive),> 100 µM (inactive)
O=C(O)CO/N=C1/C(=C2/C(=O)Nc3ccccc32)Nc2ccccc21,35.7 µM (inactive),37.9 µM (inactive),62.8 µM (inactive),70.3 µM (inactive),33.9 µM (inactive),–,86.3 µM (inactive),35.6,39.6 µM (inactive),39.5 µM (inactive),2.99 µM (inactive),61.8 µM (inactive),24.1 µM (inactive),36 µM (inactive),33.1 µM (inactive),> 100 µM (inactive),37.9 µM (inactive),18.8 µM (inactive),38.4 µM (inactive),65 µM (inactive)
